# Like-named read-outs stand apart in the source and are kept apart here.
# What was measured:
# [1] = tested on: HIV-1(IIIB) (WT); experiment: microbe, parasite or virus in culture; assay type: cell-based; conditions: Human immunodeficiency virus 1, IIIB, CCRF-CEM
# Outline: (§1)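 Infect CEM cells (250,000 cells per ml) with virus at 100 CCID50/ml; add infected suspension to wells holding diluted compound; incubate 4 days, 37° C.; examine for syncytia.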
# [2] = target: HIV-1 RT (WT) (Human immunodeficiency virus type 1 group M subtype B, UniProt P03366); experiment: biochemical; conditions: IC50, anti-HIV-1 RT (WT) activity
# Outline: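 Inhibition read as reduced incorporation of [2,8-³H]dGTP (2.95 μM) into acid-precipitable product on a poly(C).oligo(dG) template/primer (0.1 mM). Recombinant RT, test compounds in 5-fold dilutions; 30 min, 37° C, pH 7.8 Tris buffer with 5 mM Mg2+, 150 mM KCl.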
# [3] = tested on: HIV-1/TIBO R82150 (100-Ile); experiment: Sensitivity of mutant HIV-1 strain in CEM cell cultures; assay type: cell-based; conditions: CEM cells, Table 1
# Outline: as §1
# [4] = tested on: HIV-1/V(0.5) 103-Asn; experiment: as above; assay type: cell-based
# Outline: as §1
# [5] = tested on: HIV-1/Pyr (181-Cys); experiment: as above; assay type: cell-based; conditions: CEM cells, Table 1
# Outline: as §1
# [6] = tested on: HIV-1/III(0.1) 103-Asn; experiment: as above; assay type: cell-based; conditions: Table 5
# Outline: as §1
# [7] = tested on: HIV-1/IV(0.1) 103-Thr; experiment: as above; assay type: cell-based; conditions: Table 5
# Outline: as §1
# [8] = tested on: HIV-1/TIBO R82913 (103-Asn); experiment: as above; assay type: cell-based; conditions: CEM cells, Table 1
# Outline: as §1
# [9] = tested on: HIV-1/TSAO-m^3 T (138-Lys); experiment: as above; assay type: cell-based; conditions: CEM cells, Table 1
# Outline: as §1
# [10] = tested on: HIV-1/B 101Glu; experiment: as above; assay type: cell-based; conditions: Table 5
# Outline: as §1
# [11] = tested on: HIV-1/V(0.1) 101-Ile + 141-Glu; experiment: as above; assay type: cell-based; conditions: Table 5
# Outline: as §1
# [12] = tested on: HIV-1/I(0.1) 103-Asn; experiment: as above; assay type: cell-based; conditions: Table 5
# Outline: as §1
# [13] = tested on: HIV-1/Nev (106-Ala); experiment: as above; assay type: cell-based; conditions: CEM cells, Table 1
# Outline: as §1
# [14] = tested on: HIV-1/II(0.1) 100-Ile; experiment: as above; assay type: cell-based; conditions: Table 5
# Outline: as §1
smiles,measurement,setting,value
Cc1cn([C@@H]2O[C@H](CO[Si](C)(C)C(C)(C)C)[C@@]3(OS(=O)(=O)C=C3N)[C@H]2O[Si](C)(C)C(C)(C)C)c(=O)n(C)c1=O [TSAO-m^3 T],EC50,"[1]; CEM cells, Table 1, read-out: 50% Effective Concentration",0.03 µg/mL
same,EC50,"[1]; HIV-1 (III8), Table 5, read-out: EC50",0.03 µg/mL
same,IC50,[2],4.6 µM
same,50% Effective Concentration,[3],0.05 µg/mL
same,EC50,[4]; Table 5,0.30 µg/mL
same,fold more inhibitory to HIV-1/III(0.1) than to HIV-1/V(0.5),[4]; both RT/103-Asn mutants,equally inhibitory to both virus mutants
same,50% Effective Concentration,[5],3.0 µg/mL
same,EC50,[6],0.20 µg/mL
same,EC50,[7],0.30 µg/mL
same,50% Effective Concentration,[8],0.15 µg/mL
same,50% Effective Concentration,[9],> 50 µg/mL
same,EC50,[10],> 2.5 µg/mL
same,EC50,[11],0.06 µg/mL
same,EC50,[12],0.22 µg/mL
same,50% Effective Concentration,[13],> 50 µg/mL
same,EC50,[14],0.37 µg/mL
